The assay deals with Plasmodium falciparum. Description: GSK_TCMDC: Inhibition of Plasmodium falciparum 3D7 in whole erythrocytes, using parasite LDH activity as an index of growth. The format is functional, organism-based. The conditions noted are these: Plasmodium falciparum, 3D7.
For the molecule `COc1c(I)cc(Cc2cnc(N)nc2N)cc1I`, the XC50 turned out to be 930 nM.
In the case of `O=C(/C=C/c1ccc(Cl)c(Cl)c1)NCCCCCCN1CCN(C(=O)Nc2ccc(Cl)c(Cl)c2)CC1`, the XC50 stood at 931 nM.
With `Cc1nc(-c2ccccc2)nc(N2CCN(C(=O)c3ccco3)CC2)c1Cc1ccccc1F` the figure was 927 nM.
`Cc1cc(NC(=O)CCCN2CCN(c3cccc(Cl)c3Cl)CC2)ccc1N1CCN(C(C)C)CC1` yielded an XC50 of 757 nM.
`COc1cc(NC(=O)C(c2ccc(Cl)cc2)C(C)C)cc(OC)c1OC` (stereo not drawn) came in with an XC50 of 534 nM.
Molecule `N#Cc1ccc(-c2ccc(C(=O)Nc3ccc4c(c3)CCN(C3CCC3)CC4)nc2)cc1` yielded an XC50 of 696 nM.
With `O=C(NCc1cccc(C(F)(F)F)c1)C(c1cc2ccccc2o1)N1CCN(C(c2ccccc2)c2ccccc2)CC1` (stereo not drawn) the figure was 498 nM; with `Cc1ccc(NC(=O)Cc2noc(CC3CCCN3C(=O)N[C@@H](C)c3ccccc3)n2)cc1` (stereo partly drawn), 369 nM.
As to `O=C(Nc1cccc(-c2cccc(-c3nc4ccccc4[nH]3)c2)c1)Nc1ccc2c(c1)OCO2`, the XC50 is 167 nM.
In turn, `COc1cc(C(=O)NC2CCN(Cc3ccccc3)CC2)ccc1-c1nc2cc(Cl)c(Cl)cc2[nH]1` showed an XC50 of 521 nM.
With `O=[N+]([O-])c1ccc(Oc2c(Cl)cc(S(=O)(=O)N3CCC(CN4CCC(c5c[nH]c6ccccc56)CC4)CC3)cc2Cl)c(Cl)c1` the figure was 998 nM; with `O=C(NC1CCN(Cc2ccccc2)CC1)c1cccc(-c2cc3cc(Cl)c(Cl)cc3[nH]2)c1`, 725 nM.
In the case of `CCOc1cc(C(=O)NCCc2ccc(Cl)c(Cl)c2)ccc1-c1nc2cc(Cl)ccc2[nH]1` it was 895 nM.
In the case of `COc1ccc2[nH]cc(C3CCN(CCCCNC(=O)c4ccc(NC(=O)c5ccc(Cl)cc5)cc4)CC3)c2c1` it was 1020 nM; in that of `O=C(NCCCCN1CCC(c2ccc3c(c2OCC(O)c2ccc(Cl)cc2)CCCC3)CC1)c1ccc(-c2ccc(C(F)(F)F)cc2)cc1` (stereo not drawn), 1040 nM; in that of `Cn1nccc1C(=O)NCCNCc1cccc(-c2ccc(-c3nc4cc(C(F)(F)F)ccc4[nH]3)s2)c1`, 151 nM.
The molecule `CCOc1ccc2c(=NN=Cc3c4ccccc4cc4ccccc34)cc(C)[nH]c2c1` displayed an XC50 of 1070 nM.
The molecule `CCCc1ccc(NC(=O)c2cccc(CN3CCCN(Cc4cccc(O)c4)CC3)c2)cc1` yielded an XC50 of 748 nM.
With `CC(C)C1C(O)=C(c2ccc3ccccc3c2)C(=O)N1Cc1ccsc1` (stereo not drawn) the figure was 1070 nM; with `Cc1ccc(-c2nnc3c4ccccc4c(C)nn23)cc1S(=O)(=O)N1CCN(CCO)CC1`, 669 nM; with `CCc1cc2c(=O)c(-c3nc(C)cs3)c([C@H](N)Cc3ccc(O)cc3)oc2cc1O`, 902 nM.
In the case of `CC[C@H]1CN2CC[C@H]1C[C@H]2[C@H](O)c1cc(-c2ccc3ccccc3c2)nc2ccc(OC)cc12` it was 104 nM; in that of `COc1cc(C=C(C2=NC(=O)CS2)c2nc3cccnc3n2C)ccc1O`, 1000 nM.
With `C=Cc1cc(NC(=O)N2CCc3cc(OC)c(C(F)(F)F)cc32)cc(-c2cccnc2)c1` the figure was 702 nM; with `CN1CCCC1CNS(=O)(=O)c1ccc(C(=O)NCC2CC2)cc1` (stereo not drawn), 174 nM.
Molecule `CC(C)COc1ccc(Cl)cc1Cc1ccc(-c2nc3ccc(C(F)(F)F)cc3[nH]2)o1` displayed an XC50 of 847 nM.
The molecule `CCC(C)NCc1c(O)ccc2c(CNC(C)CC)c(O)ccc12` (stereo not drawn) showed an XC50 of 592 nM.
With `CS(=O)(=O)c1ccc2c(c1)CCN(CCC1CCC(NC(=O)C(=Cc3ccc(Cl)cc3Cl)c3ccc(-c4ccccc4)cc3)CC1)CC2` (stereo not drawn) the figure was 1170 nM; with `COc1cc2c(cc1OC)C(C)(C)CN1Cc3c(c(CO)c(OC)c(OC)c3OC)CC21` (stereo not drawn), 782 nM.
With `CCN(C)CCCn1c(N(C)C)nc2cc(-n3cnc4cc(-c5ccc(Cl)cc5)sc4c3=O)ccc21` the figure was 1090 nM; with `CN1CCC(N2CCN(Cc3ccc(-c4ccc(-c5nc6cc(F)ccc6[nH]5)s4)cc3)CC2)CC1`, 153 nM.
In the case of `O=C(/C=C/c1ccc(Cl)c(Cl)c1)NCCCCCN1CCCC(CNC(=O)Nc2ccc(Oc3ccccc3)cc2)C1` (stereo not drawn) it was 783 nM; in that of `N#CC(c1cccc(Cl)c1)c1ccc2c(C(F)(F)F)cc(C(F)(F)F)nc2n1` (stereo not drawn), 727 nM.
On to `CCn1c(SCc2ccc(F)cc2)nc2sc3c(c2c1=O)CCN(C)C3`, for which the XC50 was 254 nM.
Molecule `COc1cccc(CNC[C@@H](O)[C@H](Cc2ccccc2)NC(=O)c2cc(C(C)C)cc(N3CCCC3=O)c2)c1` came in with an XC50 of 953 nM.
With `CC[C@H]1CN2CC[C@H]1C[C@H]2[C@H](OC(=O)c1ccccc1)c1cc(C#N)nc2ccc(OC)cc12` the figure was 915 nM; with `NC(=O)C1CCN(Cc2ccc(-c3ccc(-c4nc5cc(C(F)(F)F)ccc5[nH]4)s3)cc2)CC1`, 540 nM.
In the case of `CNCCNCc1cccc(-c2ccc(-c3nc4cccc(C)c4[nH]3)s2)c1` it was 953 nM; in that of `Cc1cc(C(=O)Nc2ccc3c(c2)CCN3C2CCN(Cc3ccc4nsnc4c3)C2)no1` (stereo not drawn), 641 nM; in that of `O=C(Nc1cccc(-c2cccc(F)c2)c1)C1CCN(Cc2ccc(O)cc2)CC1`, 1730 nM.
With `O=C(/C=C/c1ccc(Cl)c(Cl)c1)NCCCCCN1CCC(NC(=S)Nc2cccc(Cl)c2)CC1` the figure was 873 nM; with `O=C(Nc1ccc(Br)cc1)Nc1ccc(Cn2ncc(N3CCCNCC3)c(Cl)c2=O)cc1`, 1140 nM.
`Cc1ccc(CN2CCN(CC(O)COc3ccc4c(c3)CCC4)CC2)cc1` (stereo not drawn) yielded an XC50 of 863 nM.
For the molecule `O=C(/C=C/c1cc(C(F)(F)F)ccc1F)NC1CCC(CN2CCC(c3c[nH]c4ccccc34)CC2)CC1` (stereo not drawn), the XC50 stood at 818 nM.
In turn, `O=C(C=Cc1ccc(Cl)c(Cl)c1)NCCCCCN1CCCC(CCCNC(=O)c2ccc3c(c2)OCO3)C1` (stereo not drawn) showed an XC50 of 1220 nM.
In the case of `Cc1cccc(NC(=S)NC2CCN(CCCCCNC(=O)/C=C/c3ccc(Cl)c(Cl)c3)CC2)c1`, the XC50 came out at 948 nM.
Turning to `CN1CCN(c2ccc3[nH]c(-c4ccc(Cc5cc(Cl)ccc5OCc5ccccc5)o4)nc3c2)CC1`, the XC50 worked out at 807 nM.
With `CCCC(C)Nc1nc(C)cc(N[C@@H](Cc2ccccc2)C(=O)Nc2ccc(OC)cc2)n1` (stereo partly drawn) the figure was 1120 nM; with `COc1ccc2nccc([C@@H](O)CN3CCC(NC(=O)/C=C/c4ccc(F)c5ccccc45)CC3)c2c1`, 184 nM; with `CC[C@H]1CN2CC[C@@H]1C[C@H]2[C@H](O)c1cc(N2CCC(O)(c3ccc(Cl)cc3)CC2)nc2ccc(OC)cc12`, 71 nM.
In turn, `COc1ccc(CC(C)CON2C(N)=NC(N)=NC2(C)C)cc1` (stereo not drawn) returned an XC50 of 3.2 nM.
In the case of `Fc1ccc(-c2cncc(Nc3ccncc3)n2)cc1` it was 1320 nM; in that of `c1cc(CNC2CCN(CC3CCCCC3)CC2)cc(-n2ccnc2)c1`, 650 nM.
In the case of `CC(C)(C)c1ccc(CNC(=O)/C=C/c2ccc(CNC3CCNCC3)cc2)cc1` it was 1090 nM; in that of `COCCNCc1ccc(-c2cccc(CNC3CCN(Cc4ccccc4)CC3)c2)cc1`, 333 nM.
On to `Cc1cccc2nc(-c3ccc(-c4cccc(NC(=O)Nc5ccsc5)c4)cc3)[nH]c12`, for which the XC50 amounted to 799 nM.
For `COc1cc(C)c(NC(=O)c2cccc3c(=O)c(C)c(-c4ccccc4)oc23)cc1OC`, the XC50 stood at 1630 nM.
The molecule `CC(C)c1ccc(NC(=O)c2ccc(CN3CCCN(Cc4cccc(O)c4)CC3)cc2)cc1` yielded an XC50 of 679 nM.
For `COc1cccc(C(=O)Nc2ccc(S(=O)(=O)c3cc4c(cc3OC)CCN(C)CC4)cc2)c1`, the XC50 is 1100 nM.
The molecule `COCCNCc1cccc(-c2ccc3nccc(Nc4cc(O)ccc4C)c3c2)c1` gave an XC50 of 749 nM.
In the case of `O=C1OC(c2ccccc2)(c2ccccc2)CN1CC1CCN(Cc2ccc(O)c(Cl)c2)CC1` it was 818 nM; in that of `CC1(C)N=C(N)N=C(N)N1O`, 192 nM.
As for `CCN(CC)/C(=N/C(=N)Nc1ccc(C)cc1)NCCCCCCN/C(=N\C(=N)Nc1ccc(C)cc1)N(CC)CC`, the XC50 stood at 539 nM.
On to `Cc1cc2nc(-c3ccc(C(=O)NCc4ccc(Cl)c(Cl)c4)cc3)[nH]c2cc1C`, for which the XC50 was determined as 828 nM.
`O=C(N1CCN(c2cccc(C(F)(F)F)c2)CC1)C(Cl)(Cl)Cl`: the XC50 came out at 887 nM.
In the case of `Cc1cc2c(cc1C(F)(F)F)N(C(=O)Nc1ccc(C(=O)NC3CCN(Cc4ccccc4)C3)cc1)CC2` (stereo not drawn) it was 776 nM; in that of `COc1cc(C(C)C)ccc1C1CCN(CCCCNC(=O)c2ccc(NC(=O)c3ccc(Cl)cc3)cc2)CC1`, 449 nM.
Molecule `COc1cc2nc(N(C)Cc3cc4c(Cl)cccc4s3)nc(N)c2cc1OC` had an XC50 of 953 nM.
The molecule `Fc1ccc2[nH]c(-c3ccc(-c4ccc(CNCCc5ccncc5)cc4)cc3)nc2c1` registered an XC50 of 142 nM.
As to `COCC(=O)Nc1nc2ccccc2[nH]1`, the XC50 worked out at 301 nM.
With `COc1cc(CNC[C@@H](O)[C@H](Cc2ccccc2)NC(=O)c2cc(C3CCCC3)cc(N3CCCCS3(=O)=O)c2)cc(OC)c1` the figure was 704 nM; with `O=C(Nc1cccc(-c2ccc(-c3nc4ccccc4[nH]3)cc2)c1)c1csnn1`, 1070 nM; with `COc1ccc(CNCc2ccc(F)cc2)cc1-c1ccc(OC)c(S(=O)(=O)NCCN2CCCC2)c1`, 786 nM.
In the case of `c1cc(CNCCc2ccncc2)cc(-c2ccc(-c3nc4ccccc4[nH]3)s2)c1` it was 336 nM; in that of `CC(C)(C)c1ccc(OC(=O)c2ccc(NC(=O)N[C@@H](Cc3ccc(O)cc3)C(=O)NC3CCN(Cc4ccc(O)cc4)C3)cc2)cc1` (stereo partly drawn), 814 nM; in that of `CN(C)CCCn1c(C(=O)OC(c2ccccc2)c2ccccc2)cc2cc(OCc3ccccc3)ccc21`, 201 nM.
As to `Cc1ccc(CN2CCCN(Cc3cccc(NC(=O)c4ccc(Cl)c(Cl)c4)c3)CC2)cc1`, the XC50 came out at 902 nM.
For the molecule `O=C(Nc1cccc(-c2cccc(-c3nc4cc(C(F)(F)F)ccc4[nH]3)c2)c1)c1ccncc1`, the XC50 came out at 201 nM.
With `Cc1[nH]c(C)c(-c2ccc(OCCCc3ccccn3)cc2)c(=O)c1Br` the figure was 212 nM; with `O=C(Nc1ccc(Cl)cc1Cl)NC1CCN(CCCCCNC(=O)C2CC2c2ccc(Cl)c(Cl)c2)CC1` (stereo not drawn), 367 nM; with `CC(=O)Nc1ccc(CN(C)C2CCN(c3cc(NC(=O)c4cccc(C)c4)ccn3)CC2)cc1`, 904 nM.
Take `Cc1cccc(Nc2nccc(NCC(O)c3ccc(C(F)(F)F)cc3)n2)c1` (stereo not drawn): the XC50 was 555 nM.
`O=C(NCCCCCN1CCC(c2c[nH]c3ccccc23)CC1)Nc1ccc(Cl)cc1Cl`: the XC50 was 716 nM.
